Results taken from PubChem BioAssay AID2060896 (Molecular Pharmacology Branch, DTP, NCI, 2025).

System: 941728-121-R-J1-PDC complex spheroid viability
Test: Anticancer human tumor 941728-121-R-J1-PDC patient-derived lung adenocarcinoma cell line growth inhibition [RAS]
Settings: for IC50: curve of first compound; for viability, T/C: stronger effect = lower value; active = viability on the fitted dose curve at most 10% of control; inactive = the rest
Text: RAS pathway inhibitors in Combinations in Complex Spheroids
A high-throughput screen of multi-cell type tumor spheroids was designed to identify active combinations of RAS pathway inhibitors and targeted small molecules. Complex spheroids include a stromal component modeled by human endothelial cells (HUVEC) and fibroblasts modeled by human mesenchymal stem cells (MSCs). The concentration ranges selected for each drug and investigational agent were based upon clinically achievable concentrations if the clinical Cmax of the agent was known.
Compounds. The drugs and investigational agents: abemaciclib (NSC768073), cobimetinib (NSC768068), divarasib (GDC6063, NSC841802), docetaxel (NSC628503), GDC-1971 (RLY-1971, NSC841576), gemcitabine (NSC613327), inavolisib (NSC800729), ipatasertib (NSC767898), KB-0742 (NSC834161), MRTX-1133 (NSC836407), osimertinib (NSC779217), RMC-4630 (NSC839698), RMC-6236 (NSC851965), RMC-6291 (NSC852671), Ro-3306 (NSC812927), sapanisertib (NSC764658), SN-38 (NSC673596), staurosporine (NSC755774), SY5609 (NSC837396), and tovorafenib (DAY101, NSC766906), were obtained from the National Cancer Institute (NCI) Developmental Therapeutics Program Chemical Repository. The FDA-approved anticancer drug set is available from the NCI Developmental Therapeutics Program. […] The stock solutions were prepared in dimethyl sulfoxide (DMSO, Sigma-Aldrich, St. Louis, MO, cat. D2650) at 800-fold the tested concentration and stored at -70 degrees C prior to their use. All drugs and investigational agents were tested over a range starting from a high concentration at or near the clinical Cmax and decreasing in half-log increments. If the clinical Cmax for an agent had not been determined, the highest concentration tested was 10 microM.
Cell Culture. All cells were maintained in an incubator at 37 degrees C and 5% CO2 with 95% humidity. The PDC lines were cultured according to standard operating procedures established by the NCI PDMR. All PDCs were thawed and cultured in Matrigel-coated flasks prepared with a working solution of 1X Ham's F-12 nutrient mix, without supplementation (Invitrogen, Waltham, MA, cat. 11765054), 100 U/mL penicillin-streptomycin (Invitrogen, cat. 15140122), and 2.5% Matrigel (Corning Inc., Corning, NY, cat. 354248) for the first three passages. The 362531-283-R-J2-PDC and 782815-120-R-J1-PDC lines were cultured in 6C/Colon 1B media, which includes advanced DMEM/F-12 (Thermo Fisher Scientific, cat. 12634028), 10 mM HEPES (Thermo Fisher Scientific, cat. 15630080), 1X GlutaMAX supplement (Thermo Fisher Scientific, cat. 35050061), 0.1 mg/mL primocin (InvivoGen, San Diego, CA, cat. ant-pm-2), 10% defined fetal bovine serum, heat inactivated (HyClone Laboratories Inc., Logan, UT, cat. SH30070.03HI), 50% L-WRN conditioned media (ATCC, cat. CRL-3276), 1.25 mM N-Acetyl-L-cysteine (Sigma-Aldrich, cat. A9165), 10 mM nicotinamide (Sigma-Aldrich, cat. N0636), 1X B-27 supplement (Thermo Fisher Scientific, cat. 17504044), 1X N-2 supplement (Thermo Fisher Scientific, cat. 17502048), 50 ng/mL human EGF (Thermo Fisher Scientific, cat. PHG0311), and 10 microM Y-27632 dihydrochloride (Tocris Bioscience, cat. 1254). The K12877-001-R-J1-PDC line was cultured in 6I media, which includes all 6C/Colon 1B media plus 10 ng/mL human FGF-10 (PeproTech, cat. 100-26), 1 ng/mL human FGF-2 (PeproTech, cat. 100-18B), 1 µM prostaglandin E2 (Tocris Bioscience, cat. 2296), […] hydrocortisone (Sigma-Aldrich, cat. H4001), and […] bovine insulin (Sigma-Aldrich, cat. I6634). The K86415-001-R-J1-PDC line was cultured in 6D media, which includes all 6C/Colon 1B media components minus the L-WRN conditioned media. The 485176-168-R4-J1-PDC was cultured in PANC media, which includes all 6C/Colon 1B media plus 100 ng/mL human FGF-10 (PeproTech, cat. 100-26), 500 nM SB-431542 (Selleckchem, cat. S1067), and 10 nM gastrin (Tocris Bioscience, cat. 3006). […]

[1] = second compound 0.0316 µM, first compound 0.0316 µM
[2] = second compound 0.0316 µM, first compound 0.1 µM
[3] = second compound 0.0316 µM, first compound 0.316 µM
[4] = second compound 0.0316 µM, first compound 1 µM
[5] = second compound 0.0316 µM, first compound 3.16 µM
[6] = second compound 0.0316 µM, first compound 10 µM
[7] = second compound 0.1 µM, first compound 0.0316 µM
[8] = second compound 0.1 µM, first compound 0.1 µM
[9] = second compound 0.1 µM, first compound 0.316 µM
[10] = second compound 0.1 µM, first compound 1 µM
[11] = second compound 0.1 µM, first compound 3.16 µM
[12] = second compound 0.1 µM, first compound 10 µM
[13] = second compound 0.316 µM, first compound 0.0316 µM
[14] = second compound 0.316 µM, first compound 0.1 µM
[15] = second compound 0.316 µM, first compound 0.316 µM
[16] = second compound 0.316 µM, first compound 1 µM
[17] = second compound 0.316 µM, first compound 3.16 µM
[18] = second compound 0.316 µM, first compound 10 µM
[19] = second compound 1 µM, first compound 0.0316 µM
[20] = second compound 1 µM, first compound 0.1 µM
[21] = second compound 1 µM, first compound 0.316 µM
[22] = second compound 1 µM, first compound 1 µM
[23] = second compound 1 µM, first compound 3.16 µM
[24] = second compound 1 µM, first compound 10 µM
[25] = second compound 3.16 µM, first compound 0.0316 µM
[26] = second compound 3.16 µM, first compound 0.1 µM
[27] = second compound 3.16 µM, first compound 0.316 µM
[28] = second compound 3.16 µM, first compound 1 µM
[29] = second compound 3.16 µM, first compound 3.16 µM
[30] = second compound 3.16 µM, first compound 10 µM
[31] = second compound 10 µM, first compound 0.0316 µM
[32] = second compound 10 µM, first compound 0.1 µM
[33] = second compound 10 µM, first compound 0.316 µM
[34] = second compound 10 µM, first compound 1 µM
[35] = second compound 10 µM, first compound 3.16 µM
[36] = second compound 10 µM, first compound 10 µM
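Also: spheroids exposed to compounds for 7 days before readout.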

CC(C)NCC(C(=O)N1CCN(c2ncnc3c2C(C)CC3O)CC1)c1ccc(Cl)cc1 (centres undefined) + C#Cc1c(F)ccc2cc(O)cc(-c3ncc4c(N5CC6CCC(C5)N6)nc(OCC56CCCN5CC(F)C6)nc4c3F)c12
422 nM: IC50 (second compound 0.316 µM)
< 31.6 nM: IC50 (second compound 1 µM) | IC50 (second compound 3.16 µM) | IC50 (second compound 10 µM)
inactive: viability, T/C [1] 102% | viability, T/C [2] 79.8% | viability, T/C [3] 63.7% | viability, T/C [4] 51.8% | viability, T/C [5] 38.7% | viability, T/C [6] 34.8% | viability, T/C [7] 79.9% | viability, T/C [8] 70.9% | viability, T/C [9] 61.6% | viability, T/C [10] 50% | viability, T/C [11] 39.3% | viability, T/C [12] 33.4% | viability, T/C [13] 56.6% | viability, T/C [14] 59.2% | viability, T/C [15] 52% | viability, T/C [16] 42.1% | viability, T/C [17] 35% | viability, T/C [18] 26.9% | viability, T/C [19] 39.3% | viability, T/C [20] 39.4% | viability, T/C [21] 35% | viability, T/C [22] 30.9% | viability, T/C [23] 22.9% | viability, T/C [24] 21.1% | viability, T/C [25] 32% | viability, T/C [26] 30.4% | viability, T/C [27] 28.7% | viability, T/C [28] 24.9% | viability, T/C [29] 24.6% | viability, T/C [30] 17.3% | viability, T/C [31] 25.4% | viability, T/C [32] 23.5% | viability, T/C [33] 22.3% | viability, T/C [34] 21.6% | viability, T/C [35] 17.1% | viability, T/C [36] 11.2%
1040 nM: IC50 (second compound 0.0316 µM)
972 nM: IC50 (second compound 0.1 µM)

CC(Nc1ccc2c(c1)OCCn1cc(N3C(=O)OCC3C(F)F)nc1-2)C(N)=O (centres undefined) + C#Cc1c(F)ccc2cc(O)cc(-c3ncc4c(N5CC6CCC(C5)N6)nc(OCC56CCCN5CC(F)C6)nc4c3F)c12
< 31.6 nM: IC50 (second compound 0.316 µM) | IC50 (second compound 1 µM) | IC50 (second compound 3.16 µM) | IC50 (second compound 10 µM)
inactive: viability, T/C [1] 64.5% | viability, T/C [2] 44.4% | viability, T/C [3] 37% | viability, T/C [4] 35.9% | viability, T/C [5] 29% | viability, T/C [6] 29.6% | viability, T/C [7] 56.9% | viability, T/C [8] 39.5% | viability, T/C [9] 33.2% | viability, T/C [10] 28.1% | viability, T/C [11] 31.3% | viability, T/C [12] 32.5% | viability, T/C [13] 40.3% | viability, T/C [14] 38.1% | viability, T/C [15] 33.4% | viability, T/C [16] 29.9% | viability, T/C [17] 30.4% | viability, T/C [18] 23.1% | viability, T/C [19] 33.8% | viability, T/C [20] 29.8% | viability, T/C [21] 27.6% | viability, T/C [22] 27.8% | viability, T/C [23] 27.4% | viability, T/C [24] 25.9% | viability, T/C [25] 28.3% | viability, T/C [26] 28.4% | viability, T/C [27] 28% | viability, T/C [28] 23.4% | viability, T/C [29] 26.2% | viability, T/C [30] 23.2% | viability, T/C [31] 22.8% | viability, T/C [32] 21.2% | viability, T/C [33] 19.5% | viability, T/C [34] 18.5% | viability, T/C [35] 17.4% | viability, T/C [36] 15.4%
49.4 nM: IC50 (second compound 0.1 µM)
75.7 nM: IC50 (second compound 0.0316 µM)
